One assay addresses Carbonic anhydrase 9 (Homo sapiens, UniProt Q16790).
Assay [1] deals with T1, Carbonic anhydrase 1 (Homo sapiens, UniProt P00915). The experiment in a line: Inhibition of recombinant human cytosolic carbonic anhydrase 1 assessed as inhibition of CO2 hydration up to 100 uM preincubated for 15 mins prior to testing by phenol red based stopped-flow CO2 hydration assay.
Target sequence in this assay (P00915 2-261 limits assumed): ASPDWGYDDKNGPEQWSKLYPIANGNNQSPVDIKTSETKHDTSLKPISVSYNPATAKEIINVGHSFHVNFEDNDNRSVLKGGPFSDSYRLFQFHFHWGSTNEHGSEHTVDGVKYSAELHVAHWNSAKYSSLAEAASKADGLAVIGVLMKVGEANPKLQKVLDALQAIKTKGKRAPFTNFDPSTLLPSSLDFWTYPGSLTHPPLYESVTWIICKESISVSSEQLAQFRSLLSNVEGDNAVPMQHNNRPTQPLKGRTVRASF
Assay [2] concerns the target T2, Carbonic anhydrase 4 (Homo sapiens, UniProt P22748). Description: Inhibition of recombinant human membrane-associated carbonic anhydrase 4 assessed as inhibition of CO2 hydration up to 100 uM preincubated for 15 mins prior to testing by phenol red based stopped-flow CO2 hydration assay.
In assay [3] the target is T2, Carbonic anhydrase 4. The experiment in a line: Inhibition of recombinant human membrane-associated carbonic anhydrase 4 assessed as inhibition of CO2 hydration preincubated for 15 mins prior to testing by phenol red based stopped-flow CO2 hydration assay.
In another assay the target is Carbonic anhydrase 2 (Homo sapiens, UniProt P00918). The experiment in a line: Inhibition of recombinant human carbonic anhydrase 2 assessed as inhibition of CO2 hydration preincubated for 15 mins prior to testing by phenol red based stopped-flow CO2 hydration assay.
Assay [4] addresses T1, Carbonic anhydrase 1. Description: Inhibition of recombinant human cytosolic carbonic anhydrase 1 assessed as inhibition of CO2 hydration preincubated for 15 mins prior to testing by phenol red based stopped-flow CO2 hydration assay.
Target sequence in this assay (P00915 whole entry): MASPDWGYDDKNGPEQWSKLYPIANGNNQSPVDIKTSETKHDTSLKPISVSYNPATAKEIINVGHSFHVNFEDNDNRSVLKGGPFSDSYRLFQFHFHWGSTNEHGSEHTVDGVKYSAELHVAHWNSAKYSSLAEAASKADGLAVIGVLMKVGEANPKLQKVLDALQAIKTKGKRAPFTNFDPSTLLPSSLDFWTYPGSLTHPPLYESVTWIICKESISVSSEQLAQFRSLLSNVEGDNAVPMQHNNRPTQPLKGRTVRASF

Calls of active or inactive are those of the source. No cut-off for these calls is given here.

T2 sequence (P22748 whole entry): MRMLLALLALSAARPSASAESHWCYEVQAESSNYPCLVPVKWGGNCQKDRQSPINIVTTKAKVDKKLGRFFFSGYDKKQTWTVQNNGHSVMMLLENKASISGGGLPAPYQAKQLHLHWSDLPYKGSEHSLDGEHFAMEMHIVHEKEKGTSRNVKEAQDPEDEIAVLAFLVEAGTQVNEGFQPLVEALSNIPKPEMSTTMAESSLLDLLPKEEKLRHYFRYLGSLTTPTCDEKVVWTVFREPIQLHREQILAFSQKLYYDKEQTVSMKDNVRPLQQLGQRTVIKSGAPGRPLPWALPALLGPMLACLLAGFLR
Description for Carbonic anhydrase 9: Inhibition of recombinant human tumor-associated carbonic anhydrase 9 assessed as inhibition of CO2 hydration preincubated for 15 mins prior to testing by phenol red based stopped-flow CO2 hydration assay

The term Ki denotes a measure of affinity in units of concentration, obtained from inhibition or displacement. As to `CCOC(=O)c1nn(-c2ccc(S(N)(=O)=O)cc2)c2nc3nc(-c4ccc(Cl)cc4)cc(-c4ccc([N+](=O)[O-])cc4)c3c(=O)n12`, on Carbonic anhydrase 9, the affinity corresponds to a Ki of 2460 nM. Consider `CC(=O)c1nn(-c2ccc(S(N)(=O)=O)cc2)c2nc3nc(-c4cccs4)cc(-c4ccc(Cl)cc4)c3c(=O)n12`, for which affinity on Carbonic anhydrase 9 was put at a Ki of 990 nM. The inhibition result on Carbonic anhydrase 1 [1] is “inactive”. Turning to `CCOC(=O)c1nn(-c2ccc(S(N)(=O)=O)cc2)c2nc3nc(-c4cccs4)cc(-c4ccc(OC)cc4)c3c(=O)n12`, the affinity on Carbonic anhydrase 9, expressed as Ki, was 380 nM. The molecule `CCOC(=O)c1nn(-c2ccc(S(N)(=O)=O)cc2)c2nc3nc(-c4ccc(Cl)cc4)cc(-c4ccccc4)c3c(=O)n12` gave a Ki on Carbonic anhydrase 9 of 3260 nM. The inhibition result on Carbonic anhydrase 1 [1] was “inactive”.

As to `CC(=O)c1nn(-c2ccc(S(N)(=O)=O)cc2)c2nc3nc(-c4cccs4)cc(-c4ccc([N+](=O)[O-])cc4)c3c(=O)n12`, the Ki at Carbonic anhydrase 9 came to 160 nM.

In turn, `CCOC(=O)c1nn(-c2ccc(S(N)(=O)=O)cc2)c2nc3nc(-c4cccs4)cc(-c4ccccc4)c3c(=O)n12` yielded a Ki at Carbonic anhydrase 9 of 1900 nM. Further, the inhibition entry at Carbonic anhydrase 4 [2] was “inactive”.

Consider `Cc1ccc(-c2cc(C(F)(F)F)nn2-c2ccc(S(N)(=O)=O)cc2)cc1` [CELECOXIB], for which the Ki at Carbonic anhydrase 9 stood at 20 nM; on Carbonic anhydrase 4 [3] it was 290 nM. Turning to `CC(=O)c1nn(-c2ccc(S(N)(=O)=O)cc2)c2nc3nc(-c4ccc(Cl)cc4)cc(-c4ccc(Cl)cc4)c3c(=O)n12`, the Ki at Carbonic anhydrase 9 was 350 nM. The molecule `CCOC(=O)c1nn(-c2ccc(S(N)(=O)=O)cc2)c2nc3nc(-c4ccc(Cl)cc4)cc(-c4ccc(OC)cc4)c3c(=O)n12` displayed a Ki at Carbonic anhydrase 9 of 1450 nM. Also, the inhibition entry on Carbonic anhydrase 4 [2] was “inactive”.

Molecule `CCOC(=O)c1nn(-c2ccc(S(N)(=O)=O)cc2)c2nc3nc(-c4ccc(Cl)cc4)cc(-c4ccc(Cl)cc4)c3c(=O)n12` gave a Ki at Carbonic anhydrase 9 of 1460 nM.

For the molecule `CC(=O)c1nn(-c2ccc(S(N)(=O)=O)cc2)c2nc3nc(-c4ccc(Cl)cc4)cc(-c4ccc([N+](=O)[O-])cc4)c3c(=O)n12`, the affinity at Carbonic anhydrase 9 corresponds to a Ki of 330 nM. Take `CC(=O)c1nn(-c2ccc(S(N)(=O)=O)cc2)c2nc3nc(-c4cccs4)cc(-c4ccccc4)c3c(=O)n12`: the Ki turned out to be 730 nM at Carbonic anhydrase 2, 1120 nM at Carbonic anhydrase 9, 6780 nM on Carbonic anhydrase 1 [4] and 4790 nM at Carbonic anhydrase 4 [3]. On to `CCOC(=O)c1nn(-c2ccc(S(N)(=O)=O)cc2)c2nc3nc(-c4cccs4)cc(-c4ccc([N+](=O)[O-])cc4)c3c(=O)n12`, for which the inhibitory constant (Ki) on Carbonic anhydrase 9 amounted to 1100 nM. The same measure, in the same setting: in the case of `COc1ccc(-c2cc(-c3ccc(Cl)cc3)nc3nc4n(-c5ccc(S(N)(=O)=O)cc5)nc(C(C)=O)n4c(=O)c23)cc1` it was 330 nM; in that of `CC(=O)c1nn(-c2ccc(S(N)(=O)=O)cc2)c2nc3nc(-c4ccc(Cl)cc4)cc(-c4ccccc4)c3c(=O)n12`, 180 nM. The same measure, in the same setting: in the case of `CCOC(=O)c1nn(-c2ccc(S(N)(=O)=O)cc2)c2nc3nc(-c4cccs4)cc(-c4ccc(Cl)cc4)c3c(=O)n12` it was 390 nM. On the same count and under the same terms, in the case of `COc1ccc(-c2cc(-c3cccs3)nc3nc4n(-c5ccc(S(N)(=O)=O)cc5)nc(C(C)=O)n4c(=O)c23)cc1` it was 420 nM; in that of `CC(=O)c1nn(-c2ccc(S(N)(=O)=O)cc2)c2nc3nc(-c4ccc(Cl)cc4)cc(-c4ccc(F)cc4)c3c(=O)n12`, 250 nM; in that of `CC(=O)c1nn(-c2ccc(S(N)(=O)=O)cc2)c2nc3nc(-c4cccs4)cc(-c4ccc(F)cc4)c3c(=O)n12`, 190 nM.

On Carbonic anhydrase 9, `CCOC(=O)c1nn(-c2ccc(S(N)(=O)=O)cc2)c2nc3nc(-c4ccc(Cl)cc4)cc(-c4ccc(F)cc4)c3c(=O)n12` registered a Ki of 3240 nM. `CCOC(=O)c1nn(-c2ccc(S(N)(=O)=O)cc2)c2nc3nc(-c4cccs4)cc(-c4ccc(F)cc4)c3c(=O)n12` had a Ki on Carbonic anhydrase 9 of 1620 nM. Also, on Carbonic anhydrase 1 [1], the inhibition result was “inactive”.
